Laboratory results from ChEMBL document CHEMBL1687752, “Impact of antifungal prophylaxis on colonization and azole susceptibility of Candida species” (2009).
≈ marks a conversion by molar mass, not a printed value.

System: Candida albicans
Assay: Antifungal activity against Candida albicans isolated from HSCT recipients with acute or chronic GVHD receiving posaconazole by broth microdilution method
Assay type: functional
Conditions: not given

Compound | MIC50 | MIC90
CCC(C)n1ncn(-c2ccc(N3CCN(c4ccc(OCC5COC(Cn6cncn6)(c6ccc(Cl)cc6Cl)O5)cc4)CC3)cc2)c1=O (stereo unspecified) [ITRACONAZOLE] | 0.03 µg/mL (≈ 0.0425 µM) | 0.25 µg/mL (≈ 0.354 µM)

System: Candida albicans
Assay: Antifungal activity against Candida albicans isolated from neutropenic subjects with AML or MDS receiving posaconazole assessed as maximum MIC by broth microdilution method
Assay type: functional
Conditions: not given

Compound | MIC
CCC(C)n1ncn(-c2ccc(N3CCN(c4ccc(OCC5COC(Cn6cncn6)(c6ccc(Cl)cc6Cl)O5)cc4)CC3)cc2)c1=O (stereo unspecified) [ITRACONAZOLE] | 0.03 µg/mL

System: Nakaseomyces glabratus
Assay: Antifungal activity against 177 days cultured Candida glabrata isolated from HSCT recipient with acute or chronic GVHD mouth receiving antifungal therapy for 172 days after 114 days of prophylaxis by broth microdilution method
Assay type: functional
Conditions: not given

Compound | MIC
CCC(C)n1ncn(-c2ccc(N3CCN(c4ccc(OCC5COC(Cn6cncn6)(c6ccc(Cl)cc6Cl)O5)cc4)CC3)cc2)c1=O (stereo unspecified) [ITRACONAZOLE] | 1 µg/mL (≈ 1.42 µM)

System: Nakaseomyces glabratus
Assay: Antifungal activity against 25 days cultured Candida glabrata isolated from invasive fungal infected subject blood receiving antifungal therapy for 25 days after 3 days of prophylaxis by broth microdilution method
Assay type: functional
Conditions: not given

Compound | MIC
CCC(C)n1ncn(-c2ccc(N3CCN(c4ccc(OCC5COC(Cn6cncn6)(c6ccc(Cl)cc6Cl)O5)cc4)CC3)cc2)c1=O (stereo unspecified) [ITRACONAZOLE] | 2 µg/mL (≈ 2.83 µM)

System: Candida albicans
Assay: Antifungal activity against Candida albicans isolated from HSCT recipient 301 with acute or chronic GVHD mouth after 114 days prophylaxis by broth microdilution method
Assay type: functional
Conditions: not given

Compound | MIC
CCC(C)n1ncn(-c2ccc(N3CCN(c4ccc(OCC5COC(Cn6cncn6)(c6ccc(Cl)cc6Cl)O5)cc4)CC3)cc2)c1=O (stereo unspecified) [ITRACONAZOLE] | < 0.015 µg/mL

System: Nakaseomyces glabratus
Assay: Antifungal activity against -2 days cultured Candida glabrata isolated from HSCT recipient with acute or chronic GVHD mouth receiving antifungal therapy for 172 days after 114 days of prophylaxis by broth microdilution method
Assay type: functional
Conditions: not given

Compound | MIC
CCC(C)n1ncn(-c2ccc(N3CCN(c4ccc(OCC5COC(Cn6cncn6)(c6ccc(Cl)cc6Cl)O5)cc4)CC3)cc2)c1=O (stereo unspecified) [ITRACONAZOLE] | 1 µg/mL (≈ 1.42 µM)

System: Nakaseomyces glabratus
Assay: Antifungal activity against 60 days cultured Candida glabrata isolated from HSCT recipient with acute or chronic GVHD mouth receiving antifungal therapy for 75 days after 33 days of prophylaxis by broth microdilution method
Assay type: functional
Conditions: not given

Compound | MIC
CCC(C)n1ncn(-c2ccc(N3CCN(c4ccc(OCC5COC(Cn6cncn6)(c6ccc(Cl)cc6Cl)O5)cc4)CC3)cc2)c1=O (stereo unspecified) [ITRACONAZOLE] | 4 µg/mL (≈ 5.67 µM)

System: Nakaseomyces glabratus
Assay: Antifungal activity against 62 days cultured Candida glabrata isolated from HSCT recipient with acute or chronic GVHD mouth receiving antifungal therapy for 143 days after 116 days of prophylaxis by broth microdilution method
Assay type: functional
Conditions: not given

Compound | MIC
CCC(C)n1ncn(-c2ccc(N3CCN(c4ccc(OCC5COC(Cn6cncn6)(c6ccc(Cl)cc6Cl)O5)cc4)CC3)cc2)c1=O (stereo unspecified) [ITRACONAZOLE] | 8 µg/mL (≈ 11.3 µM)

System: Nakaseomyces glabratus
Assay: Antifungal activity against Candida glabrata isolated from neutropenic subject 1318 with AML or MDS stool receiving antifungal drug after 36 days prophylaxis by broth microdilution method
Assay type: functional
Conditions: not given

Compound | MIC
CCC(C)n1ncn(-c2ccc(N3CCN(c4ccc(OCC5COC(Cn6cncn6)(c6ccc(Cl)cc6Cl)O5)cc4)CC3)cc2)c1=O (stereo unspecified) [ITRACONAZOLE] | > 8 µg/mL

System: Nakaseomyces glabratus
Assay: Antifungal activity against 111 days cultured Candida glabrata isolated from HSCT recipient with acute or chronic GVHD mouth receiving antifungal therapy for 143 days after 116 days of prophylaxis by broth microdilution method
Assay type: functional
Conditions: not given

Compound | MIC
CCC(C)n1ncn(-c2ccc(N3CCN(c4ccc(OCC5COC(Cn6cncn6)(c6ccc(Cl)cc6Cl)O5)cc4)CC3)cc2)c1=O (stereo unspecified) [ITRACONAZOLE] | > 8 µg/mL

System: Candida albicans
Assay: Antifungal activity against Candida albicans isolated from HSCT recipient 462 with acute or chronic GVHD mouth after 112 days prophylaxis by broth microdilution method
Assay type: functional
Conditions: not given

Compound | MIC
CCC(C)n1ncn(-c2ccc(N3CCN(c4ccc(OCC5COC(Cn6cncn6)(c6ccc(Cl)cc6Cl)O5)cc4)CC3)cc2)c1=O (stereo unspecified) [ITRACONAZOLE] | 0.06 µg/mL (≈ 0.085 µM)

System: Nakaseomyces glabratus
Assay: Antifungal activity against 56 days cultured Candida glabrata isolated from HSCT recipient with acute or chronic GVHD mouth receiving antifungal therapy for 172 days after 114 days of prophylaxis by broth microdilution method
Assay type: functional
Conditions: not given

Compound | MIC
CCC(C)n1ncn(-c2ccc(N3CCN(c4ccc(OCC5COC(Cn6cncn6)(c6ccc(Cl)cc6Cl)O5)cc4)CC3)cc2)c1=O (stereo unspecified) [ITRACONAZOLE] | 0.5 µg/mL (≈ 0.709 µM)

System: Nakaseomyces glabratus
Assay: Antifungal activity against Candida glabrata isolated from HSCT recipient 002 with acute or chronic GVHD mouth after 116 days prophylaxis by broth microdilution method
Assay type: functional
Conditions: not given

Compound | MIC
CCC(C)n1ncn(-c2ccc(N3CCN(c4ccc(OCC5COC(Cn6cncn6)(c6ccc(Cl)cc6Cl)O5)cc4)CC3)cc2)c1=O (stereo unspecified) [ITRACONAZOLE] | 1 µg/mL (≈ 1.42 µM)

System: Nakaseomyces glabratus
Assay: Antifungal activity against 1 day cultured Candida glabrata isolated from neutropenic subject with AML or MDS stool receiving antifungal therapy for 25 days after 3 days of prophylaxis by broth microdilution method
Assay type: functional
Conditions: not given

Compound | MIC
CCC(C)n1ncn(-c2ccc(N3CCN(c4ccc(OCC5COC(Cn6cncn6)(c6ccc(Cl)cc6Cl)O5)cc4)CC3)cc2)c1=O (stereo unspecified) [ITRACONAZOLE] | 8 µg/mL (≈ 11.3 µM)

System: Nakaseomyces glabratus
Assay: Antifungal activity against 59 days cultured Candida glabrata isolated from HSCT recipient with acute or chronic GVHD mouth receiving antifungal therapy for 75 days after 33 days of prophylaxis by broth microdilution method
Assay type: functional
Conditions: not given

Compound | MIC
CCC(C)n1ncn(-c2ccc(N3CCN(c4ccc(OCC5COC(Cn6cncn6)(c6ccc(Cl)cc6Cl)O5)cc4)CC3)cc2)c1=O (stereo unspecified) [ITRACONAZOLE] | 1 µg/mL (≈ 1.42 µM)

System: Nakaseomyces glabratus
Assay: Antifungal activity against 43 days cultured Candida glabrata isolated from HSCT recipient with acute or chronic GVHD mouth receiving antifungal therapy for 168 days after 113 days of prophylaxis by broth microdilution method
Assay type: functional
Conditions: not given

Compound | MIC
CCC(C)n1ncn(-c2ccc(N3CCN(c4ccc(OCC5COC(Cn6cncn6)(c6ccc(Cl)cc6Cl)O5)cc4)CC3)cc2)c1=O (stereo unspecified) [ITRACONAZOLE] | 2 µg/mL (≈ 2.83 µM)

System: Candida albicans
Assay: Antifungal activity against Candida albicans isolated from neutropenic subjects with AML or MDS prior to initiation of posaconazole therapy assessed as maximum MIC by broth microdilution method
Assay type: functional
Conditions: not given

Compound | MIC
CCC(C)n1ncn(-c2ccc(N3CCN(c4ccc(OCC5COC(Cn6cncn6)(c6ccc(Cl)cc6Cl)O5)cc4)CC3)cc2)c1=O (stereo unspecified) [ITRACONAZOLE] | 0.03 µg/mL

System: Nakaseomyces glabratus
Assay: Antifungal activity against 1 day cultured Candida glabrata isolated from HSCT recipient with acute or chronic GVHD mouth receiving antifungal therapy for 143 days after 116 days of prophylaxis by broth microdilution method
Assay type: functional
Conditions: not given

Compound | MIC
CCC(C)n1ncn(-c2ccc(N3CCN(c4ccc(OCC5COC(Cn6cncn6)(c6ccc(Cl)cc6Cl)O5)cc4)CC3)cc2)c1=O (stereo unspecified) [ITRACONAZOLE] | 1 µg/mL (≈ 1.42 µM)

System: Nakaseomyces glabratus
Assay: Antifungal activity against Candida glabrata isolated from neutropenic subject 1102 with AML or MDS stool receiving antifungal drug after 26 days prophylaxis by broth microdilution method
Assay type: functional
Conditions: 624 h

Compound | MIC
CCC(C)n1ncn(-c2ccc(N3CCN(c4ccc(OCC5COC(Cn6cncn6)(c6ccc(Cl)cc6Cl)O5)cc4)CC3)cc2)c1=O (stereo unspecified) [ITRACONAZOLE] | > 8 µg/mL

System: Candida tropicalis
Assay: Antifungal activity against 9 days cultured Candida tropicalis isolated from neutropenic subject with AML or MDS stool receiving antifungal therapy for 45 days after 24 days of prophylaxis by broth microdilution method
Assay type: functional
Conditions: not given

Compound | MIC
CCC(C)n1ncn(-c2ccc(N3CCN(c4ccc(OCC5COC(Cn6cncn6)(c6ccc(Cl)cc6Cl)O5)cc4)CC3)cc2)c1=O (stereo unspecified) [ITRACONAZOLE] | 0.03 µg/mL (≈ 0.0425 µM)
